Values joined by “and” are separate entries in the source; they are usually repeats but may differ in a detail not shown here. Identical values can stand only once. Like-named read-outs stand apart in the source and are kept apart here.
What was measured:
TRPC4 homomer = target: T1, TRPC4 homomer (Homo sapiens, UniProt Q9UBN4); assay: Whole-cell patch-clamp, inhibition of TRPC4 homomer; type: cell-based; settings: read-out: IC50, TRPC4 homomers
T1 construct: expressed in transfected cells
T1 sequence (Q9UBN4 1-977): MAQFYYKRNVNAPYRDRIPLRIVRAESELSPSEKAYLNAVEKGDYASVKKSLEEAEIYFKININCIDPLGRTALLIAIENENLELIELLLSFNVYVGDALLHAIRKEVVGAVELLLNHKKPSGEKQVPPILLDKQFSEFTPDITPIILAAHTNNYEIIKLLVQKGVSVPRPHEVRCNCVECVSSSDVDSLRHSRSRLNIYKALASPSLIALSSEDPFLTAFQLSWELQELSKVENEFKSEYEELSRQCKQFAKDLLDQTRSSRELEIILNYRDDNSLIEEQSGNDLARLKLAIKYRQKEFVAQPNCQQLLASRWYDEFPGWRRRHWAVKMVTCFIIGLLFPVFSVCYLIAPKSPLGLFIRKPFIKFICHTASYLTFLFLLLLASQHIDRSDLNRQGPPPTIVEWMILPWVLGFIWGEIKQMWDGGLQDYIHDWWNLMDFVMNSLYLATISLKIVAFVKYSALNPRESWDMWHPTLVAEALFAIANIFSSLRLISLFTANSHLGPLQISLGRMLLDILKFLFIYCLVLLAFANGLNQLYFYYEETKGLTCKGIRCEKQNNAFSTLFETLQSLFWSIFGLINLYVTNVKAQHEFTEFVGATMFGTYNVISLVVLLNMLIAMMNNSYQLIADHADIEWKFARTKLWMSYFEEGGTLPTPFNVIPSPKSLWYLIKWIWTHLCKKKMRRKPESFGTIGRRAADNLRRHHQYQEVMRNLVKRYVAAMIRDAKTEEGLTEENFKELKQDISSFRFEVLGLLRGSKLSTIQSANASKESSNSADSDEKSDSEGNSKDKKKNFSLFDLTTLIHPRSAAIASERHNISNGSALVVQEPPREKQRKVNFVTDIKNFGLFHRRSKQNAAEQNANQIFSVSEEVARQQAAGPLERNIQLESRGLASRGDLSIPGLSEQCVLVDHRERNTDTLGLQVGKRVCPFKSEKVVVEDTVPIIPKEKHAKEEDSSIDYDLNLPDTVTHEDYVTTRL

[1] = tested on: CUMS-induced depressive-like behaviors; assay: Sucrose preference test (SPT) in CUMS model; type: in vivo, mouse; settings: CUMS mice
Description: The stressors included food and water deprivation, foot shock, wet bedding, cage tilting, restraint, shaking, and olfactory stimulation. These seven stressors were randomly applied each week to ensure unpredictability. The stress induction was maintained continuously for 28 days. Following model establishment, the tail suspension test (TST) was performed to confirm the successful induction of depressive-like behaviors. Mice that met the criteria were randomly assigned to experimental groups.
Acute Treatment: A single dose of the test compound was administered, followed by the sucrose preference test (SPT).
Chronic Treatment: Mice were treated daily for 14 consecutive days. The SPT was conducted on day 11, and the forced swimming test (FST) was performed on day 14.
Mice were acclimated to 1% sucrose solution and plain water for 2 days. On the second day, the positions of the sucrose solution and water were swapped to eliminate positional bias. […] Mice were provided with pre-weighed 1% sucrose solution and plain water. […] Sucrose preference (%) was calculated as Sucrose Preference = A/(A + B)×100.

[2] = Pharmacokinetics in mouse after p.o. and i.v. administration; type: in vivo; settings: for AUC(0-inf): read-out: AUCINF_obs; for clearance: read-out: CL_obs; for MRT inf: read-out: MRTINF_obs
[3] = C57BL/6J, mouse, in vivo, iv, 2 mg/kg, mouse 2mg/kg i.v., Mean
[4] = C57BL/6J, mouse, in vivo, iv, 2 mg/kg, mouse 2mg/kg i.v., individual animals 4-6
[5] = C57BL/6J, mouse, in vivo, po, 10 mg/kg, mouse 10mg/kg p.o., Mean
[6] = C57BL/6J, mouse, in vivo, po, 10 mg/kg, mouse 10mg/kg p.o., individual animals 1-3
[7] = mouse 2mg/kg i.v., individual animals 4-6, listed as JD03-02, 2 mg/kg
[8] = mouse 10mg/kg p.o., individual animals 1-3, listed as JD03-02, 10 mg/kg

CN(C)CCCCn1c(=O)c2c(nc(Oc3cccc(Cl)c3)n2Cc2ccc(Cl)cc2)n(C)c1=O [H08]
IC50 (TRPC4 homomer): 2380 nM
sucrose intake (SPT), repeated dosing ([1]; 11 days once-daily oral, vs vehicle): significantly improved sucrose intake
sucrose preference (SPT), single dose ([1]; single oral dose, JD03-02 30 mg/kg, 30 mg/kg): significantly increased sucrose preference
Tmax ([2]; C57BL/6J, in vivo, po, mouse 10mg/kg p.o., Mean): 1 h
AUC(0-t) [2, 3]: 478 ng·h/mL
half-life [2, 3]: 3.09 h
AUC(0-inf) [2, 3]: 519 ng·h/mL
clearance [2, 3]: 65.9 mL/min/kg
MRT inf [2, 3]: 3.94 h
AUC(0-t) [2, 4]: 385 ng·h/mL
half-life [2, 4]: 3.52 h
AUC(0-inf) [2, 4]: 469 ng·h/mL
clearance [2, 4]: 71 mL/min/kg
MRT inf [2, 4]: 4.46 h
AUC(0-t) [2, 5]: 1190 ng·h/mL
half-life [2, 5]: 2.9 h
AUC(0-inf) [2, 5]: 1220 ng·h/mL
Cmax ([2]; C57BL/6J, mouse, in vivo, po, 10 mg/kg, mouse 10mg/kg p.o., Mean, read-out: Cmax): 201 ng/mL
MRT inf [2, 5]: 5.27 h
half-life [2, 6]: 2.86 h
AUC(0-inf) [2, 6]: 1300 ng·h/mL
Cmax ([2]; C57BL/6J, mouse, in vivo, po, 10 mg/kg, mouse 10mg/kg p.o., individual animals 1-3, read-out: Cmax): 256 ng/mL
MRT inf [2, 6]: 4.73 h
Kp ([2]; brain and heart plasma, po, 10 mg/kg, mouse p.o., read-out: AUClast brain/AUClast heart plasma (brain-to-plasma ratio, B/P)): 0.67
Kp at 4 h ([2]; brain and heart plasma, po, 10 mg/kg, mouse p.o., read-out: Clast brain/Cmax heart plasma): 0.83
bioavailability ([2]; in vivo, oral, mouse 10mg/kg p.o. vs 2mg/kg i.v., read-out: F (oral bioavailability)): 49.8%
Vss_obs ([2]; mouse 2mg/kg i.v., Mean): 15.296 L/kg
AUCINF_obs [2, 7]: 447 ng·h/mL and 640 ng·h/mL
AUClast [2, 7]: 416 ng·h/mL and 634 ng·h/mL
CL_obs [2, 7]: 74.6 mL/min/kg and 52.1 mL/min/kg
MRTINF_obs [2, 7]: 2.895 h and 4.460 h
T1/2 [2, 7]: 2.06 h and 3.69 h
Vss_obs [2, 7]: 18.984 L/kg and 12.955 L/kg and 13.949 L/kg
AUCINF_obs [2, 8]: 1549 ng·h/mL and 800 ng·h/mL
AUClast [2, 8]: 1294 ng·h/mL and 1532 ng·h/mL and 746 ng·h/mL
Cmax [2, 8]: 205 ng/mL and 143 ng/mL
MRTINF_obs [2, 8]: 6.50 h and 4.58 h
T1/2 [2, 8]: 3.35 h and 2.48 h
AUClast ([2]; mouse p.o., brain): 524 ng·h/g
Cmax ([2]; mouse, brain, po, 10 mg/kg, mouse p.o., brain, read-out: Cmax): 265 ng/g
concentration at 4 h ([2]; mouse, brain, single 10 mg/kg oral dose, at 4 hours): ~513 nM
AUC(0-t) ([2]; mouse, heart plasma, po, 10 mg/kg, mouse p.o.): 778 ng·h/mL
Cmax ([2]; mouse, heart plasma, po, 10 mg/kg, mouse p.o., heart plasma, read-out: Cmax): 318 ng/mL
AUC(0-t) ([2]; mouse, portal vein plasma, po, 10 mg/kg, mouse p.o.): 1330 ng·h/mL
Cmax ([2]; mouse, portal vein plasma, po, 10 mg/kg, mouse p.o., portal vein plasma, read-out: Cmax): 493 ng/mL
Tmax ([2]; po, 10 mg/kg, mouse p.o., brain): 4 h
Tmax ([2]; po, 10 mg/kg, mouse p.o., heart plasma): 4 h
Tmax ([2]; po, 10 mg/kg, mouse p.o., portal vein plasma): 0.25 h

— paper PMC13385394, “Cryo-EM Structure of the TRPC1/5 Heteromer Enables Design of Antidepressant and Anxiolytic Drug with Reduced Side Effects” (Nature Communications, 2026)
